# According to patent US6525001B1, “Substituted pyrimidine and pyridine herbicides” (Mid-American Commercialization Corporation, priority 1997, dated 2003):
# Tests used:
# Assay type in all cases: in vivo
# Design in all cases: key: 0 is no effect; 10 is complete control
# [1] = system: cocklebur (Xanthium strumarium); experiment: Test B pre-/postemergence; settings: for Cocklebur plant response rating: Preemergence
# How it was run: (§1)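 Seeds were planted and sprayed preemergence, while plants at 2 to 18 cm (1- to 4-leaf stage) were sprayed postemergence at the same time, with test chemical in a non-phytotoxic solvent mixture containing surfactant. After twelve to sixteen days in a greenhouse, injury was rated visually against untreated controls on a 0–10 scale.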
# soybean (Glycine max) = experiment: Test B pre-/postemergence
# How it was run: as §1
# [2] = system: pigweed (Amaranthus retroflexus); experiment: Test B pre-/postemergence
# How it was run: as §1
# [3] = system: broadleaf signalgrass (Brachiaria decumbens); experiment: Test B pre-/postemergence; settings: for B. signalgrass plant response rating: Preemergence
# How it was run: as §1
# [4] = system: giant foxtail (Setaria faberii); experiment: Test B pre-/postemergence
# How it was run: as §1
# wild oat (Avena fatua) = experiment: Test B pre-/postemergence
# How it was run: as §1
# [5] = system: blackgrass (Alopecurus myosuroides); experiment: Test B pre-/postemergence; settings: for Blackgrass plant response rating: Preemergence
# How it was run: as §1
# rape (Brassica napus) = experiment: Test B pre-/postemergence
# How it was run: as §1
# [6] = system: wheat (Triticum aestivum); experiment: Test B pre-/postemergence
# How it was run: as §1
# corn (Zea mays) = experiment: Test B pre-/postemergence; settings: for Corn plant response rating: Preemergence
# How it was run: as §1
# [7] = system: crabgrass (Digitaria sanguinalis); experiment: Test B pre-/postemergence; settings: for Crabgrass plant response rating: Preemergence
# How it was run: as §1
# [8] = system: velvetleaf (Abutilon theophrasti); experiment: Test B pre-/postemergence
# How it was run: as §1
# [9] = system: bedstraw (Galium aparine); experiment: Test B pre-/postemergence; settings: for Bedstraw plant response rating: Preemergence
# How it was run: as §1
# [10] = system: purple nutsedge (Cyperus rotundus); experiment: Test B pre-/postemergence
# How it was run: as §1
# [11] = system: sugar beet (Beta vulgaris); experiment: Test B pre-/postemergence
# How it was run: as §1
# [12] = system: momingglory (Ipomoea hederacea); experiment: Test B pre-/postemergence
# How it was run: as §1
# [13] = system: smallflower flatsedge (Cyperus difformis); experiment: Test B flood test
# How it was run: (§2)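 Plants were grown to the 2-leaf stage before treatment with test chemical, then held in a greenhouse for twelve to sixteen days. Injury was visually rated against untreated controls on a 0–10 scale, where 0 is no effect and 10 is complete control.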
# [14] = system: duck salad (Heteranthera limosa); experiment: Test B flood test
# How it was run: as §2
# [15] = system: bamyardgrass (Echinochloa crus-galli); experiment: Test B flood test
# How it was run: as §2
# rice (Oryza sativa) = experiment: Test B flood test
# How it was run: as §2
# [16] = Rate 250 g/ha, Postemergence (so in the source)
# [17] = Rate 62 g/ha, Postemergence (flood test)
# [18] = Rate 125 g/ha, Postemergence section (flood test species)
# [19] = Rate 250 g/ha, Postemergence (flood test species)
# [20] = Rate 125 g/ha, Postemergence, flood test
compound,measurement,setting,value
Cc1cnc(-c2ccccc2F)nc1Cc1cccc(C#N)c1 [Compound 37],"Plant response rating, Cocklebur","[1]; Rate 62 g/ha, Postemergence",1
same,Cocklebur plant response rating,[1]; Rate 62 g/ha,0
same,"Plant response rating, Cocklebur","[1]; Rate 125 g/ha, Postemergence",2
same,Cocklebur plant response rating,[1]; Rate 125 g/ha,0
same,"Plant response rating, Cocklebur","[1]; Rate 250 g/ha, Postemergence",3
same,"Plant response rating, Cocklebur",[1]; [16],0
same,"Plant response rating, Soybean","soybean (Glycine max); Rate 62 g/ha, Postemergence",0
same,Soybean plant response rating,"soybean (Glycine max); Rate 62 g/ha, Preemergence",0
same,Soybean plant response rating,"soybean (Glycine max); Rate 125 g/ha, Postemergence",0
same,"Plant response rating, Soybean","soybean (Glycine max); Rate 125 g/ha, Preemergence",0
same,"Plant response rating, Soybean","soybean (Glycine max); Rate 250 g/ha, Postemergence",0
same,"Plant response rating, Soybean",soybean (Glycine max); [16],0
same,"Plant response rating, Redroot pigweed","[2]; Rate 62 g/ha, Postemergence",1
same,Redroot pigweed plant response rating,"[2]; Rate 62 g/ha, Preemergence",0
same,Redroot pigweed plant response rating,"[2]; Rate 125 g/ha, Postemergence",1
same,Redroot pigweed plant response rating,"[2]; Rate 125 g/ha, Preemergence",0
same,"Plant response rating, Redroot pigweed","[2]; Rate 250 g/ha, Postemergence",7
same,"Plant response rating, Redroot pigweed",[2]; [16],0
same,"Plant response rating, B. signalgrass","[3]; Rate 62 g/ha, Postemergence",0
same,B. signalgrass plant response rating,[3]; Rate 62 g/ha,0
same,"Plant response rating, B. signalgrass","[3]; Rate 125 g/ha, Postemergence",0
same,B. signalgrass plant response rating,[3]; Rate 125 g/ha,0
same,"Plant response rating, B. signalgrass","[3]; Rate 250 g/ha, Postemergence",0
same,"Plant response rating, B. signalgrass","[3]; Rate 250 g/ha, Postemergence as printed in head r139 (second section for compounds 26-50)",0
same,"Plant response rating, Giant foxtail","[4]; Rate 62 g/ha, Postemergence",0
same,Giant foxtail plant response rating,"[4]; Rate 62 g/ha, Preemergence",0
same,Giant foxtail plant response rating,"[4]; Rate 125 g/ha, Postemergence",0
same,Giant foxtail plant response rating,"[4]; Rate 125 g/ha, Preemergence",0
same,"Plant response rating, Giant foxtail","[4]; Rate 250 g/ha, Postemergence",1
same,"Plant response rating, Giant foxtail",[4]; [16],0
same,Wild oats plant response rating,"wild oat (Avena fatua); Rate 62 g/ha, Postemergence",0
same,Wild oats plant response rating,"wild oat (Avena fatua); Rate 62 g/ha, Preemergence",0
same,Wild oats plant response rating,"wild oat (Avena fatua); Rate 125 g/ha, Postemergence",0
same,"Plant response rating, Wild oats","wild oat (Avena fatua); Rate 125 g/ha, Preemergence",0
same,"Plant response rating, Wild oats","wild oat (Avena fatua); Rate 250 g/ha, Postemergence",0
same,"Plant response rating, Wild oats",wild oat (Avena fatua); [16],0
same,"Plant response rating, Blackgrass","[5]; Rate 62 g/ha, Postemergence",0
same,Blackgrass plant response rating,[5]; Rate 62 g/ha,0
same,"Plant response rating, Blackgrass","[5]; Rate 125 g/ha, Postemergence",0
same,Blackgrass plant response rating,[5]; Rate 125 g/ha,0
same,"Plant response rating, Blackgrass","[5]; Rate 250 g/ha, Postemergence",0
same,"Plant response rating, Blackgrass",[5]; [16],0
same,"Plant response rating, Rape","rape (Brassica napus); Rate 62 g/ha, Postemergence",1
same,Rape plant response rating,"rape (Brassica napus); Rate 62 g/ha, Preemergence",0
same,Rape plant response rating,"rape (Brassica napus); Rate 125 g/ha, Postemergence",3
same,Rape plant response rating,"rape (Brassica napus); Rate 125 g/ha, Preemergence",0
same,"Plant response rating, Rape","rape (Brassica napus); Rate 250 g/ha, Postemergence",4
same,"Plant response rating, Rape",rape (Brassica napus); [16],0
same,Wheat plant response rating,"[6]; Rate 62 g/ha, Postemergence",0
same,Wheat plant response rating,"[6]; Rate 62 g/ha, Preemergence",0
same,Wheat plant response rating,"[6]; Rate 125 g/ha, Postemergence",0
same,"Plant response rating, Wheat","[6]; Rate 125 g/ha, Preemergence",0
same,"Plant response rating, Wheat","[6]; Rate 250 g/ha, Postemergence",0
same,"Plant response rating, Wheat",[6]; [16],0
same,"Plant response rating, Corn","corn (Zea mays); Rate 62 g/ha, Postemergence",1
same,Corn plant response rating,corn (Zea mays); Rate 62 g/ha,0
same,"Plant response rating, Corn","corn (Zea mays); Rate 125 g/ha, Postemergence",1
same,Corn plant response rating,corn (Zea mays); Rate 125 g/ha,0
same,"Plant response rating, Corn","corn (Zea mays); Rate 250 g/ha, Postemergence",1
same,"Plant response rating, Corn",corn (Zea mays); [16],0
same,"Plant response rating, Crabgrass","[7]; Rate 62 g/ha, Postemergence",0
same,Crabgrass plant response rating,[7]; Rate 62 g/ha,0
same,"Plant response rating, Crabgrass","[7]; Rate 125 g/ha, Postemergence",0
same,Crabgrass plant response rating,[7]; Rate 125 g/ha,0
same,"Plant response rating, Crabgrass","[7]; Rate 250 g/ha, Postemergence",1
same,"Plant response rating, Crabgrass",[7]; [16],0
same,"Plant response rating, Velvetleaf","[8]; Rate 62 g/ha, Postemergence",0
same,Velvetleaf plant response rating,"[8]; Rate 62 g/ha, Preemergence",0
same,Velvetleaf plant response rating,"[8]; Rate 125 g/ha, Postemergence",0
same,"Plant response rating, Velvetleaf","[8]; Rate 125 g/ha, Preemergence",0
same,"Plant response rating, Velvetleaf","[8]; Rate 250 g/ha, Postemergence",1
same,"Plant response rating, Velvetleaf",[8]; [16],0
same,"Plant response rating, Bedstraw","[9]; Rate 62 g/ha, Postemergence",1
same,Bedstraw plant response rating,[9]; Rate 62 g/ha,0
same,"Plant response rating, Bedstraw","[9]; Rate 125 g/ha, Postemergence",1
same,Bedstraw plant response rating,[9]; Rate 125 g/ha,0
same,"Plant response rating, Bedstraw",[9]; [16],0
same,"Plant response rating, Nutsedge","[10]; Rate 62 g/ha, Postemergence",0
same,Nutsedge plant response rating,"[10]; Rate 62 g/ha, Preemergence",0
same,Nutsedge plant response rating,"[10]; Rate 125 g/ha, Postemergence",0
same,Nutsedge plant response rating,"[10]; Rate 125 g/ha, Preemergence",0
same,"Plant response rating, Nutsedge","[10]; Rate 250 g/ha, Postemergence",0
same,"Plant response rating, Nutsedge",[10]; [16],0
same,"Plant response rating, Sugarbeets","[11]; Rate 62 g/ha, Postemergence",1
same,Sugarbeets plant response rating,"[11]; Rate 62 g/ha, Preemergence",0
same,Sugarbeets plant response rating,"[11]; Rate 125 g/ha, Postemergence",5
same,"Plant response rating, Sugarbeets","[11]; Rate 125 g/ha, Preemergence",0
same,"Plant response rating, Sugarbeets","[11]; Rate 250 g/ha, Postemergence",5
same,"Plant response rating, Sugarbeets",[11]; [16],0
same,"Plant response rating, Morningglory","[12]; Rate 62 g/ha, Postemergence",1
same,Morningglory plant response rating,"[12]; Rate 62 g/ha, Preemergence",0
same,Morningglory plant response rating,"[12]; Rate 125 g/ha, Postemergence",1
same,Morningglory plant response rating,"[12]; Rate 125 g/ha, Preemergence",0
same,"Plant response rating, Morningglory","[12]; Rate 250 g/ha, Postemergence",1
same,"Plant response rating, Morningglory",[12]; [16],0
same,"Plant response rating, S. Flatsedge",[13]; [17],0
same,S. Flatsedge plant response rating,[13]; [18],0
same,"Plant response rating, S. Flatsedge",[13]; [19],0
same,"Plant response rating, Ducksalad",[14]; [17],0
same,"Plant response rating, Ducksalad",[14]; [20],0
same,"Plant response rating, Ducksalad",[14]; [19],0
same,"Plant response rating, Barnyardgrass",[15]; [17],0
same,"Plant response rating, Barnyardgrass",[15]; [20],0
same,"Plant response rating, Barnyardgrass",[15]; [19],0
same,"Plant response rating, Rice",rice (Oryza sativa); [17],0
same,Rice plant response rating,rice (Oryza sativa); [18],0
same,"Plant response rating, Rice",rice (Oryza sativa); [19],0
